One experiment deals with Enterobacteriaceae. The experiment can be described thus: Antibacterial activity against 16S rRNA methylase and beta-lactamase producing Enterobacteriaceae by CLSI method. In kind it is functional.
A further experiment deals with Enterobacter cloacae. The experiment can be described thus: Antibacterial activity against armA-positive Enterobacter cloacae expressing KPC-2 beta-lactamase by CLSI method. In kind it is functional.

Consider `NCC[C@H](O)C(=O)N[C@@H]1C[C@H](N)[C@@H](O[C@H]2O[C@H](CN)[C@@H](O)[C@H](O)[C@H]2O)[C@H](O)[C@H]1O[C@H]1O[C@H](CO)[C@@H](O)[C@H](N)[C@H]1O` [AMIKACIN], for which, in the experiment with Enterobacteriaceae, the MIC50 – broadly, an inhibitory concentration at the 50% level, which refers to growth in some studies and to a panel of isolates in others – is above 256 µg/mL; the MIC90 (in general, the lowest concentration that inhibits either 90% of growth or 90% of the strains tested, depending on the study) is above 256 µg/mL.

Turning to `C[C@@H](O)[C@H]1C(=O)N2C(C(=O)O)=C(SCCNC=N)C[C@H]12` [IMIPENEM ANHYDROUS], the MIC – broadly, the lowest concentration found to suppress growth – in the experiment on Enterobacter cloacae was above 32 µg/mL.

In the experiment with Enterobacteriaceae, GENTAMICIN returned an MIC50 above 256 µg/mL and an MIC90 above 256 µg/mL.
